Source: ChEMBL document CHEMBL5154747, “Discovery of new carbonic anhydrase IX inhibitors as anticancer agents by toning the hydrophobic and hydrophilic rims of the active site to encounter the dual-tail approach” (Eur J Med Chem, 2022)

Assays:
Type in all cases: functional
SF-295 = test: Anticancer activity against human SF-295 cells assessed as cell growth inhibition at 10 uM incubated for 48 hrs by SRB assay relative to control; conditions: read-out: GI
TK-10 [1] = test: Anticancer activity against human TK-10 cells assessed as cell growth inhibition incubated for 48 hrs by SRB assay
SNB-19 [2] = test: Anticancer activity against human SNB-19 cells assessed as cell growth inhibition at 10 uM incubated for 48 hrs by SRB assay relative to control; conditions: read-out: GI
IGROV-1 [3] = test: Anticancer activity against human IGROV-1 cells assessed as cell growth inhibition at 10 uM incubated for 48 hrs by SRB assay relative to control; conditions: read-out: GI
EKVX [4] = test: Anticancer activity against human EKVX cells assessed as cell growth inhibition at 10 uM incubated for 48 hrs by SRB assay relative to control; conditions: read-out: GI
KM12 = test: Anticancer activity against human KM12 cells assessed as cell growth inhibition incubated for 48 hrs by SRB assay
OVCAR-8 [5] = test: Anticancer activity against human OVCAR-8 cells assessed as cell growth inhibition incubated for 48 hrs by SRB assay
EKVX [6] = test: Anticancer activity against human EKVX cells assessed as cell growth inhibition incubated for 48 hrs by SRB assay
TK-10 [7] = test: Anticancer activity against human TK-10 cells assessed as cell growth inhibition at 10 uM incubated for 48 hrs by SRB assay relative to control; conditions: read-out: GI
SN12C [8] = test: Anticancer activity against human SN12C cells assessed as cell growth inhibition incubated for 48 hrs by SRB assay
NCI-H322M [9] = test: Anticancer activity against human NCI-H322M cells assessed as cell growth inhibition incubated for 48 hrs by SRB assay
SK-MEL-28 [10] = test: Anticancer activity against human SK-MEL-28 cells assessed as cell growth inhibition at 10 uM incubated for 48 hrs by SRB assay relative to control; conditions: read-out: GI
SK-MEL-28 [11] = test: Anticancer activity against human SK-MEL-28 cells assessed as cell growth inhibition incubated for 48 hrs by SRB assay
NCI-H23 = test: Anticancer activity against human NCI-H23 cells assessed as cell growth inhibition incubated for 48 hrs by SRB assay
UO-31 = test: Anticancer activity against human UO-31 cells assessed as cell growth inhibition at 10 uM incubated for 48 hrs by SRB assay relative to control; conditions: read-out: GI
786-0 [12] = test: Anticancer activity against human 786-0 cells assessed as cell growth inhibition incubated for 48 hrs by SRB assay
OVCAR-8 [13] = test: Anticancer activity against human OVCAR-8 cells assessed as cell growth inhibition at 10 uM incubated for 48 hrs by SRB assay relative to control; conditions: read-out: GI
SNB-19 [14] = test: Anticancer activity against human SNB-19 cells assessed as cell growth inhibition incubated for 48 hrs by SRB assay
ACHN = test: Anticancer activity against human ACHN cells assessed as cell growth inhibition incubated for 48 hrs by SRB assay
NCI-H226 = test: Anticancer activity against human NCI-H226 cells assessed as cell growth inhibition incubated for 48 hrs by SRB assay
IGROV-1 [15] = test: Anticancer activity against human IGROV-1 cells assessed as cell growth inhibition incubated for 48 hrs by SRB assay
MDA-MB-468 = test: Anticancer activity against human MDA-MB-468 cells assessed as cell growth inhibition incubated for 48 hrs by SRB assay
SF-539 = test: Anticancer activity against human SF-539 cells assessed as cell growth inhibition incubated for 48 hrs by SRB assay
HT-29 = test: Anticancer activity against human HT-29 cells assessed as cell growth inhibition at 10 uM incubated for 48 hrs by SRB assay relative to control; conditions: read-out: GI
RXF 393 = test: Anticancer activity against human RXF 393 cells assessed as cell growth inhibition at 10 uM incubated for 48 hrs by SRB assay relative to control; conditions: read-out: GI
LOX IMVI = test: Anticancer activity against human LOX IMVI cells assessed as cell growth inhibition at 10 uM incubated for 48 hrs by SRB assay relative to control; conditions: read-out: GI
COLO 205 = test: Anticancer activity against human COLO 205 cells assessed as cell growth inhibition at 10 uM incubated for 48 hrs by SRB assay relative to control; conditions: read-out: GI
BT-549 = test: Anticancer activity against human BT-549 cells assessed as cell growth inhibition incubated for 48 hrs by SRB assay
DU-145 = test: Anticancer activity against human DU-145 cells assessed as cell growth inhibition at 10 uM incubated for 48 hrs by SRB assay relative to control; conditions: read-out: GI
SK-OV-3 [16] = test: Anticancer activity against human SK-OV-3 cells assessed as cell growth inhibition incubated for 48 hrs by SRB assay
SK-MEL-5 = test: Anticancer activity against human SK-MEL-5 cells assessed as cell growth inhibition incubated for 48 hrs by SRB assay
NCI-H322M [17] = test: Anticancer activity against human NCI-H322M cells assessed as cell growth inhibition at 10 uM incubated for 48 hrs by SRB assay relative to control; conditions: read-out: GI
NCI-H522 = test: Anticancer activity against human NCI-H522 cells assessed as cell growth inhibition at 10 uM incubated for 48 hrs by SRB assay relative to control; conditions: read-out: GI
UACC-257 = test: Anticancer activity against human UACC-257 cells assessed as cell growth inhibition incubated for 48 hrs by SRB assay
SN12C [18] = test: Anticancer activity against human SN12C cells assessed as cell growth inhibition at 10 uM incubated for 48 hrs by SRB assay relative to control; conditions: read-out: GI
786-0 [19] = test: Anticancer activity against human 786-0 cells assessed as cell growth inhibition at 10 uM incubated for 48 hrs by SRB assay relative to control; conditions: read-out: GI
SK-OV-3 [20] = test: Anticancer activity against human SK-OV-3 cells assessed as cell growth inhibition at 10 uM incubated for 48 hrs by SRB assay relative to control; conditions: read-out: GI
Malme-3M = test: Anticancer activity against human Malme-3M cells assessed as cell growth inhibition at 10 uM incubated for 48 hrs by SRB assay relative to control; conditions: read-out: GI
MOLT-4 = test: Anticancer activity against human MOLT-4 cells assessed as cell growth inhibition incubated for 48 hrs by SRB assay
Hs-578T = test: Anticancer activity against human Hs-578T cells assessed as cell growth inhibition at 10 uM incubated for 48 hrs by SRB assay relative to control; conditions: read-out: GI
[21] = read-out: LC50 (the source's name)

For `NS(=O)(=O)c1ccc(Nc2nc(N/N=C/c3ccc(C(F)(F)F)cc3)nc(Nc3ccccc3)n2)cc1`, the inhibition of growth at 10 µM (SF-295) was 95%, the GI50 (TK-10 [1]) was 3.45 µM and the CC50 (TK-10 [1]; [21]) was 33.7 µM. For the same compound, the inhibition of growth at 10 µM (SNB-19 [2]) was 66%, the inhibition of growth at 10 µM (IGROV-1 [3]) was 68% and the inhibition of growth at 10 µM (EKVX [4]) was 46%. The GI50 (KM12) was 2.38 µM, the CC50 (KM12; [21]) was 24.8 µM and the GI50 (OVCAR-8 [5]) was 2.83 µM. For the same compound, the LC50 (OVCAR-8 [5]) was 35.5 µM, the GI50 (EKVX [6]) was 2.62 µM and the CC50 (EKVX [6]; [21]) was 40.3 µM. For the same compound, the inhibition of growth at 10 µM (TK-10 [7]) was 35%, the GI50 (SN12C [8]) was 3 µM and the LC50 (SN12C [8]) was 86.6 µM. The GI50 (NCI-H322M [9]) was 3.31 µM, the CC50 (NCI-H322M [9]; [21]) was 36.1 µM and the inhibition of growth at 10 µM (SK-MEL-28 [10]) was 72%. For the same compound, the GI50 (SK-MEL-28 [11]) was 2.44 µM, the CC50 (SK-MEL-28 [11]; [21]) was 26.3 µM and the GI50 (NCI-H23) was 1.95 µM. It also gave a CC50 (NCI-H23; [21]) of 9.25 µM, an inhibition of growth at 10 µM (UO-31) of 39% and a GI50 (786-0 [12]) of 2.22 µM. It also gave a CC50 (786-0 [12]; [21]) of 33.7 µM, an inhibition of growth at 10 µM (OVCAR-8 [13]) of 67% and a GI50 (SNB-19 [14]) of 3.46 µM. It also gave a CC50 (SNB-19 [14]; [21]) of 40.6 µM, a GI50 (ACHN) of 2.68 µM and a CC50 (ACHN; [21]) of 26.5 µM. It also gave a GI50 (NCI-H226) of 2.45 µM, a CC50 (NCI-H226; [21]) of over 100 µM and a GI50 (IGROV-1 [15]) of 2.64 µM. It also gave a CC50 (IGROV-1 [15]; [21]) of 53.8 µM, a GI50 (MDA-MB-468) of 1.73 µM and a CC50 (MDA-MB-468; [21]) of 8.63 µM. The GI50 (SF-539) was 1.86 µM, the CC50 (SF-539; [21]) was 9.61 µM and the inhibition of growth at 10 µM (HT-29) was 88%. It also gave an inhibition of growth at 10 µM (RXF 393) of 139%, an inhibition of growth at 10 µM (LOX IMVI) of 90% and an inhibition of growth at 10 µM (COLO 205) of 70%. The GI50 (BT-549) was 2.79 µM, the CC50 (BT-549; [21]) was 37.2 µM and the inhibition of growth at 10 µM (DU-145) was 60%. The GI50 (SK-OV-3 [16]) was 3.66 µM, the LC50 (SK-OV-3 [16]) was over 100 µM and the GI50 (SK-MEL-5) was 1.74 µM. The LC50 (SK-MEL-5) was 5.82 µM, the inhibition of growth at 10 µM (NCI-H322M [17]) was 47% and the inhibition of growth at 10 µM (NCI-H522) was 62%. It also gave a GI50 (UACC-257) of 2.42 µM, an LC50 (UACC-257) of 37.2 µM and an inhibition of growth at 10 µM (SN12C [18]) of 57%. The inhibition of growth at 10 µM (786-0 [19]) was 103%, the inhibition of growth at 10 µM (SK-OV-3 [20]) was 44% and the inhibition of growth at 10 µM (Malme-3M) was 77%. The GI50 (MOLT-4) was 3.06 µM, the CC50 (MOLT-4; [21]) was over 100 µM and the inhibition of growth at 10 µM (Hs-578T) was 91%.
For `NS(=O)(=O)c1ccc(Nc2nc(N/N=C/CCc3ccccc3)nc(Nc3ccccc3)n2)cc1`, the inhibition of growth at 10 µM (SF-295) was under 10%, the inhibition of growth at 10 µM (SNB-19 [2]) was under 10% and the inhibition of growth at 10 µM (IGROV-1 [3]) was under 10%. It also gave an inhibition of growth at 10 µM (EKVX [4]) of under 10%, an inhibition of growth at 10 µM (TK-10 [7]) of under 10% and an inhibition of growth at 10 µM (SK-MEL-28 [10]) of under 10%. The inhibition of growth at 10 µM (UO-31) was under 10%, the inhibition of growth at 10 µM (OVCAR-8 [13]) was under 10% and the inhibition of growth at 10 µM (HT-29) was under 10%. The inhibition of growth at 10 µM (RXF 393) was under 10%, the inhibition of growth at 10 µM (LOX IMVI) was under 10% and the inhibition of growth at 10 µM (COLO 205) was under 10%. It also gave an inhibition of growth at 10 µM (DU-145) of under 10%, an inhibition of growth at 10 µM (NCI-H322M [17]) of under 10% and an inhibition of growth at 10 µM (NCI-H522) of 12%. The inhibition of growth at 10 µM (SN12C [18]) was under 10%, the inhibition of growth at 10 µM (786-0 [19]) was under 10% and the inhibition of growth at 10 µM (SK-OV-3 [20]) was under 10%. The inhibition of growth at 10 µM (Malme-3M) was under 10% and the inhibition of growth at 10 µM (Hs-578T) was under 10%.
